In patent US20210330648A1, “Pharmaceutical composition and use thereof” (ALPHALA CO., LTD., priority 2020, published 2021):
In brackets after ≈: the same amount, converted by molar mass.

Tests used:
[1] = Solubility in buffers or solutions, LC-MS/MS; type: physicochemical; settings: for Solubility (mg/ml): 37° C., 24 hrs
Experimental: The method for measuring the solubilities of the formulations is briefly described. The test formulation was added into indicated buffers or solutions (ddH2O or 0.9% saline, pH 7.4) to the final concentration of 3 mg/mL, followed by sonicating for 30 mins. Next, the mixture was put into 37° C. water bath for 24 hrs. The mixture was mixed well by vortex and 1 mL of mixture was transferred into the 1.5 mL eppendorf tube, followed by centrifuging at 20817 xg for 30 mins. 10 μL of the supernatant was collected, and the concentration of the collected supernatant was determined by LC-MS/MS.

[2] = In vitro dissolution testing, USP apparatus Type 2 (paddles); type: physicochemical; settings: pH 6.8 phosphate buffer with 0.25% SDS, 900 mL, 75 rpm, 37° C.
Experimental: In vitro dissolution testing was performed using an USP dissolution apparatus Type 2 (paddles) at 75 rpm (250 rpm at infinity) using 900 mL phosphate buffer pH 6.8 with 0.25% w/v SDS as the dissolution medium at 37 0.5° C.

[3] = indicates poor aqueous solubility but good membrane permeability; cited from earlier work
[4] = Oral bioavailability / pharmacokinetics in Beagle dogs; type: in vivo; settings: dog, plasma, pH 7.4, IV bolus, 40 to 50 mg, vehicle 0.1M NaHCO3 pH7.4, read-out: AUC (area under the curve) of IV bolus
Experimental: Briefly, three healthy, research Beagle dogs, aged 4˜10 years and body weight 9˜12 kg were used. The pharmacokinetics experiments have intravenous bolus (IV bolus) and oral groups.
For the IV bolus and oral groups, the dogs received the drugs after fasting for 4 hours, and the blood samples of the dogs were taken before administration. The blood samples were collected at pre-assigned times (10 min, 1 hr, 2 hr, 4 hr, 5 hr, 7 hr and 24 hr) after administration. The concentrations of the drug in plasma were determined with validated high performance liquid chromatography.
The plasma concentration data were analyzed and modeled by the non-compartmental analysis to obtain pharmacokinetics parameters.

Structure (SMILES)	Solubility (mg/ml) ([1]; H2O (pH 7.0))	Solubility (mg/ml) ([1]; Saline (pH 7.4))	solubility at 24 h ([1]; USP pH 6.8 buffer, aqueous buffer, thermodynamic from solid, USP pH 6.8, 37° C.)	In vitro dissolution ([2]; 0 min)	In vitro dissolution ([2]; 5 min)	In vitro dissolution ([2]; 10 min)	In vitro dissolution ([2]; 15 min)	In vitro dissolution ([2]; 20 min)	In vitro dissolution ([2]; 30 min)	In vitro dissolution ([2]; 45 min)	In vitro dissolution ([2]; 60 min)	In vitro dissolution ([2]; 90 min)	In vitro dissolution ([2]; 120 min)	Biopharmaceutical Classification System (BCS) class [3]	AUC [4]
CCOC(=O)CCNC(=O)c1ccc(N[C@H](c2ccc(-c3nnc(-c4ccccc4)o3)cc2)C(C)C)cc1 [ALP001E]	<LOQ	<LOQ	0.44 µg/mL (≈ 0.858 µM)	0.00%	4.40%	3.69%	4.73%	2.87%	1.18%	1.26%	2.11%	2.77%	13.04%	Class II	–
CC(C)[C@H](Nc1ccc(C(=O)NCCC(=O)O)cc1)c1ccc(-c2nnc(-c3ccccc3)o2)cc1 [ALP001]	–	–	–	–	–	–	–	–	–	–	–	–	–	–	2180 ng·h/mL
